Data reported in patent publication EP2826473A1, “NOVEL USE OF PATCHOULOL” (Chengdu Huasun Group Inc., Ltd., priority 2012, dated 2013).
Converted amounts (≈) assume the structure as drawn. Read-outs that look alike come from different tables or passages of the source.

Tests used:
[1] = test system: Methicillin-resistant Staphylococcus aureus ATCC 43300; assay: in vivo protection of model mice infected with methicillin-resistant Staphylococcus aureus; parameters: species or system KM mice; settings: intraperitoneal injection once a day, within 14 days; for Survival number: 10 animals
Experimental: Tested strains' virulence assay: Methicillin-resistant Staphylococcus aureus was cultured in incubator at 37°C to reach exponential phase of growth, and then diluted with normal saline to obtain different gradient concentrations of bacterial liquid. Different concentrations of bacterial liquid were taken and mixed with equivalent 10% gastric mucin. Bacterial liquid was administrated to mice at 0.5 ml/20 g by intraperitoneal injection, and 5% gastric mucin was used as control. Under a premise of no control mice death, the death rate of mice within 14 days was recorded, and the minimum bacterial volumes leading to death of whole mice were measured, i.e. the minimum lethal dose (MLD) of bacterial liquid.
Pretesting of effective dose in vivo: Infection model mice infected by Methicillin-resistant Staphylococcus aureus were randomly divided into a few of groups (four mice per group), and a graded dose of each bacterial liquid was separately administrated to mice in each test group at one time per day. Moreover, administration of test drug was done one day ahead of schedule, and toxic substances were not eliminated until 0.5 h after administration on the second day. The death status of mice within 14 days was observed, to determine the dosage used in the formal experiment.
KM mice (grade SPF), half male and half female, weighing 18-22 g were randomly divided into […] groups with ten mice for each group, i.e. the group receiving vancomycin hydrochloride for injection; the groups receiving high, medium, and low doses of patchoulol; blank group; model group; and control group receiving gastric mucin. All of the mice were administrated by intraperitoneal injection once a day. The mice were administrated one day in advance and then attacked after 0.5h of administration on the second day, i.e. intraperitoneally injected with methicillin-resistant Staphylococcus aureus liquid containing 5% gastric mucin. Amongst, mice in the model group were given normal saline instead of test drug; mice in the blank group were not given drugs and attacked; mice in the gastric mucin control group were not given test drug, but only injected with 5% gastric mucin without bacteria.
The death status of mice within 14 days after injection of bacteria was observed, and its survival rate was recorded.

[2] = test system: Escherichia coli E^-; assay: in vitro bacteriostatic activity, agar dilution MIC; format: cell-based
[3] = mouse, in vivo, po; cited from earlier work
[4] = test system: humoral immunity and mononuclear phagocyte functions; settings: intragastric 40 and 80 mg/(kg·d) for successive 7 days; cited from earlier work
[5] = test system: learning and memory ability; settings: mice, scopolamine, intragastric 80 and 40 mg/kg; cited from earlier work
[6] = test system: Streptococcus agalactiae; assay: in vitro bacteriostatic activity, agar dilution MIC; format: cell-based; settings: Streptococcus agalactiae 12-1
[7] = test system: Escherichia coli; assay: in vitro bacteriostatic activity, agar dilution MIC, quality control strain and summary; format: cell-based
[8] = test system: Klebsiella pneumonia; assay: as above; format: cell-based; settings: Klebsiella pneumoniae
[9] = test system: Pseudomonas aeruginosa; assay: in vitro bacteriostatic activity, agar dilution MIC; format: cell-based; settings: Pseudomonas aeruginosa12-1
[10] = test system: Staphylococcus aureus MRSA; assay: as above; format: cell-based
[11] = test system: Streptococcus pneumoniae; assay: as above; format: cell-based
[12] = test system: Enterococcus faecium; assay: as above; format: cell-based; settings: Enterococcus faecium, read-out: MIC
[13] = test system: carrageenan-induced paw edema; settings: cited from earlier work
[14] = test system: Staphylococcus epidermidis MRSE; assay: in vitro bacteriostatic activity, agar dilution MIC; format: cell-based
[15] = test system: Proteus vulgaris; assay: as above; format: cell-based; settings: Proteus vulgaris 12-1
[16] = test system: Klebsiella pneumonia E^+; assay: as above; format: cell-based; settings: Klebsiella pneumoniae
[17] = test system: Staphylococcus sciuri; assay: as above; format: cell-based; settings: Mammaliicoccus sciuri; Staphylococcus sciuri 12-1
[18] = test system: Staphylococcus auricularis; assay: as above; format: cell-based
[19] = test system: vomit response; settings: chickens, 50-70 mg/kg; cited from earlier work

SMILES: C[C@H]1CC[C@@]2(O)C(C)(C)[C@@H]3CC[C@@]2(C)[C@H]1C3 (stereo in doubt) [PC, (1R,4S,4aS,6R,8aS)-octahydro-4,8a,9,9-tetramethyl-1,6-methanonaphthalen-1(2H)-ol]
- Survival number ([1]; High dose 200 mg/kg): 10
- Survial rate (%) ([1]; High dose 200 mg/kg): 100%
- Survival number ([1]; Low dose 50 mg/kg): 8
- Survial rate (%) ([1]; Low dose 50 mg/kg): 80%
- Survival number ([1]; Medium dose 100 mg/kg): 10
- Survial rate (%) ([1]; Medium dose 100 mg/kg): 100%
- MIC ([2]; Escherichia coli E^- 10-12): > 768 µg/mL
- MIC ([2]; Escherichia coli E^- 10-18): > 768 µg/mL
- maximum tolerated dose [3]: less than 12.5 g/kg
- thymus gland index, spleen index, sanguinin content, and clearance index [4]: effectively improve
- learning and memory ability [5]: enhance learning and memory ability
- MIC [6]: 50 µg/mL (≈ 225 µM)
- MIC ([7]; ATCC25922, Escherichia coli ATCC 25922, read-out: MIC): 768 µg/mL (≈ 3450 µM)
- MIC ([7]; summary, Escherichia coli ESBLs /ESBLs^+, read-out: MIC values): ≥ 768 µg/mL
- MIC ([8]; ATCC700603, Klebsiella pneumonia ATCC 700603, read-out: MIC): > 768 µg/mL
- MIC ([8]; summary, Klebsiella pneumonia ESBLs^-/ESBLs^+, read-out: MIC values): ≥ 768 µg/mL
- MIC [9]: 50 µg/mL (≈ 225 µM)
- MIC ([10]; ATCC 43300 / MRSA, Methicillin-resistant Staphylococcus aureus ATCC 43300, read-out: MIC): 128 µg/mL (≈ 576 µM)
- MIC ([10]; MRSA, Staphylococcus aureus MRSA 10-31, read-out: MIC): 1.5 µg/mL (≈ 6.75 µM)
- MIC ([10]; MRSA, Staphylococcus aureus MRSA 10-32, read-out: MIC): 1.5 µg/mL (≈ 6.75 µM)
- MIC ([10]; MRSA, Staphylococcus aureus MRSA 12-11, read-out: MIC): 128 µg/mL (≈ 576 µM)
- MIC ([10]; MRSA, Staphylococcus aureus MRSA 12-12, read-out: MIC): 128 µg/mL (≈ 576 µM)
- MIC ([10]; MRSA, Staphylococcus aureus MRSA 12-13, read-out: MIC): 64 µg/mL (≈ 288 µM)
- MIC ([10]; MRSA, Staphylococcus aureus MRSA 12-14, read-out: MIC): 64 µg/mL (≈ 288 µM)
- MIC ([10]; MRSA, Staphylococcus aureus MRSA 12-15, read-out: MIC): 64 µg/mL (≈ 288 µM)
- MIC ([10]; MRSA, Staphylococcus aureus MRSA 12-16, read-out: MIC): 64 µg/mL (≈ 288 µM)
- MIC ([10]; MRSA, Staphylococcus aureus MRSA 12-17, read-out: MIC): 128 µg/mL (≈ 576 µM)
- MIC ([10]; MRSA, Staphylococcus aureus MRSA 12-18, read-out: MIC): 128 µg/mL (≈ 576 µM)
- MIC ([10]; MRSA, Staphylococcus aureus MRSA 12-19, read-out: MIC): 64 µg/mL (≈ 288 µM)
- MIC ([10]; MRSA, Staphylococcus aureus MRSA 12-20, read-out: MIC): 128 µg/mL (≈ 576 µM)
- MIC ([11]; ATCC49619, Streptococcus pneumonia ATCC 49619): 200 µg/mL (≈ 899 µM)
- MIC ([11]; Streptococcus pneumonia 12-6): 100 µg/mL (≈ 450 µM)
- MIC ([11]; Streptococcus pneumonia 12-7): 200 µg/mL (≈ 899 µM)
- MIC ([11]; Streptococcus pneumonia 12-8): 100 µg/mL (≈ 450 µM)
- MIC ([11]; Streptococcus pneumonia 12-9): 100 µg/mL (≈ 450 µM)
- MIC ([11]; Streptococcus pneumonia 12-10): 200 µg/mL (≈ 899 µM)
- MIC ([11]; Streptococcus pneumoniae 12-1): 200 µg/mL (≈ 899 µM)
- MIC ([11]; Streptococcus pneumoniae 12-2): 100 µg/mL (≈ 450 µM)
- MIC ([11]; Streptococcus pneumoniae 12-3): 200 µg/mL (≈ 899 µM)
- MIC ([11]; Streptococcus pneumoniae 12-4): 200 µg/mL (≈ 899 µM)
- MIC ([11]; Streptococcus pneumoniae 12-5): 100 µg/mL (≈ 450 µM)
- MIC ([12]; ATCC33186, Enterococcus faecium ATCC 33186): 128 µg/mL (≈ 576 µM)
- MIC ([12]; Enterococcus faecium 12-7): 64 µg/mL (≈ 288 µM)
- MIC ([12]; Enterococcus faecium 12-8): 64 µg/mL (≈ 288 µM)
- MIC ([12]; Enterococcus faecium 12-9): 64 µg/mL (≈ 288 µM)
- MIC ([12]; Enterococcus faecium 12-10): 32 µg/mL (≈ 144 µM)
- MIC ([12]; Enterococcus faecium 12-11): 32 µg/mL (≈ 144 µM)
- MIC ([12]; Enterococcus faecium 12-12): 64 µg/mL (≈ 288 µM)
- MIC ([12]; Enterococcus faecium 12-13): 64 µg/mL (≈ 288 µM)
- MIC ([12]; Enterococcus faecium 12-14): 64 µg/mL (≈ 288 µM)
- MIC ([12]; Enterococcus faecium 12-15): 32 µg/mL (≈ 144 µM)
- MIC ([12]; Enterococcus faecium 12-16): 32 µg/mL (≈ 144 µM)
- content of NO, PGE-2, TNF-α in the hind paw ([13]; inflammatory rats, high dosage): significantly reduce
- carrageenan-induced paw edema ([13]; rats, dose-dependent): effectively inhibit
- MIC ([14]; Staphylococcus epidermidis MRSE 10-40, read-out: MIC): 1.5 µg/mL (≈ 6.75 µM)
- MIC ([14]; Staphylococcus epidermidis MRSE 10-44, read-out: MIC): 1.5 µg/mL (≈ 6.75 µM)
- MIC ([14]; Staphylococcus epidermidis MRSE 12-11, read-out: MIC): 128 µg/mL (≈ 576 µM)
- MIC ([14]; Staphylococcus epidermidis MRSE 12-12, read-out: MIC): 32 µg/mL (≈ 144 µM)
- MIC ([14]; Staphylococcus epidermidis MRSE 12-15, read-out: MIC): 32 µg/mL (≈ 144 µM)
- MIC ([14]; Staphylococcus epidermidis MRSE 12-16, read-out: MIC): 32 µg/mL (≈ 144 µM)
- MIC ([14]; Staphylococcus epidermidis MRSE 12-17, read-out: MIC): 32 µg/mL (≈ 144 µM)
- MIC ([14]; Staphylococcus epidermidis MRSE 12-18, read-out: MIC): 32 µg/mL (≈ 144 µM)
- MIC ([14]; Staphylococcus epidermidis MRSE 12-19, read-out: MIC): 32 µg/mL (≈ 144 µM)
- MIC ([14]; Staphylococcus epidermidis MRSE 12-20, read-out: MIC): 128 µg/mL (≈ 576 µM)
- MIC ([14]; Staphylococcus epidermidis MRSE 12-21, read-out: MIC): 128 µg/mL (≈ 576 µM)
- MIC ([14]; Staphylococcus epidermidis MRSE 12-22, read-out: MIC): 32 µg/mL (≈ 144 µM)
- MIC [15]: 100 µg/mL (≈ 450 µM)
- MIC ([16]; Klebsiella pneumonia E^+ 10-2): > 768 µg/mL
- MIC ([16]; Klebsiella pneumonia E^+ 10-6): > 768 µg/mL
- MIC [17]: 50 µg/mL (≈ 225 µM)
- MIC ([18]; Staphylococcus auricularis (first line, r19)): 25 µg/mL (≈ 112 µM)
- MIC ([18]; Staphylococcus auricularis (second line, r20)): 50 µg/mL (≈ 225 µM)
- vomit response induced by CuSO4 [19]: obviously inhibit
